Patent US7368578B2, “Five-membered heterocyclic compounds” (Takeda Pharmaceutical Company Limited, priority 2002, dated 2008)

Columns and labels:
human PPARγ1 = molecular target: T1, human PPARγ1 (Homo sapiens, UniProt P37231); test: Human PPARγ1 antagonist assay (luciferase reporter in PPARγ:RXRα:4ERPP/CHO-K1 cells); type: cell-based; details: test compound 10^−6 M, 10 nM compound A as stimulant, luciferase activity, 24 hrs, read-out: Inhibitory rate (%)
T1 construct: expressed in transfected cells; host or cells: CHO-K1 cells stably transfected with pVgRXR2-hPPARγ and reporter plasmid pGL3-4ERPP-TK neo
T1 sequence (P37231 1-477 isoform P37231-2): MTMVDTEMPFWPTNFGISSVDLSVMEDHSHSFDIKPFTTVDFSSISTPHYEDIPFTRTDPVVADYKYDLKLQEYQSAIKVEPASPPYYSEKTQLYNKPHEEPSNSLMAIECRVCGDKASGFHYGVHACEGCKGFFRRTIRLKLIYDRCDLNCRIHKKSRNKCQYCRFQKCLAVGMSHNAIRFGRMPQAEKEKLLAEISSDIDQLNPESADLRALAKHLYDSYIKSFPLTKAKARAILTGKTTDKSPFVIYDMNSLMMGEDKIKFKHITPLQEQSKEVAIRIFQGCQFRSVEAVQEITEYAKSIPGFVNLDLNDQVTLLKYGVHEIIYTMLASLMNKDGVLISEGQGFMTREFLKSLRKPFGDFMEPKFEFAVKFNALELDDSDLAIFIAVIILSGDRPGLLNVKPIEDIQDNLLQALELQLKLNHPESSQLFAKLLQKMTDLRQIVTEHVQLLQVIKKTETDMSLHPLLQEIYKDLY
T1 sequence (P19793 1-462 partner): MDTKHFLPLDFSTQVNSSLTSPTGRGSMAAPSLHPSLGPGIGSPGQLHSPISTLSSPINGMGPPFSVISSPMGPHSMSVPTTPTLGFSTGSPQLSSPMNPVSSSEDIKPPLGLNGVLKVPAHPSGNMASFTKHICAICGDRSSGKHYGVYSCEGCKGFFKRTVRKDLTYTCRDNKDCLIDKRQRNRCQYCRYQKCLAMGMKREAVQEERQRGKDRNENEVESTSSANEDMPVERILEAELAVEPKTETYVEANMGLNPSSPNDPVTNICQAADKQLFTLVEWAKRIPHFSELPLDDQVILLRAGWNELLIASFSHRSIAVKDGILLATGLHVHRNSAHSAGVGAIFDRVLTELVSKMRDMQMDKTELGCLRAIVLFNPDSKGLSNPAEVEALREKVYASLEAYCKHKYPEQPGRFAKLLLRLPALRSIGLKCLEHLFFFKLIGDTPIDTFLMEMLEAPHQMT

- inhibition at 1 µM (human PPARγ1): 103%
- melting point: 194 to 196 °C
Compound: CCn1cnc(/C=C/c2cn(-c3ccccc3)nc2OCc2ccc(OCc3nc(-c4ccc(CC(=O)O)cc4)oc3C)c(OC)c2)c1 [Example 344, (4-{4-[(4-[({4-[(E)-2-(1-ethyl-1H-imidazol-4-yl)ethenyl]-1-phenyl-1H-pyrazol-3-yl}oxy)methyl]-2-methoxyphenoxy)methyl]-5-methyl-1,3-oxazol-2-yl}phenyl)acetic acid]
